ChEMBL document CHEMBL4765295, “Synthesis, pharmacological profile and 2D-QSAR studies of curcumin-amino acid conjugates as potential drug candidates” (Eur J Med Chem, 2020)
pIC50: −log10 of the molar value. Several values for one entry are separate records, joined by “and”; a condition that tells them apart may be missing. Equal values may be shown once.

Tested on: Mus musculus
Experiment: Analgesic activity in albino mouse assessed protection against acetic acid-induced abdominal writhing at 10 mg/kg, ip pretreated for 1 hr followed by acetic acid challenge and measured starting 5 mins post acetic acid challenge for 10 mins relative to control (reference value: 0 %)
Format: functional
Details: time 75 min, 1.25 h

SMILES | Activity [%]
COc1cc(/C=C/C(=O)/C=C(O)/C=C/c2ccc(OC(=O)CN)c(OC)c2)ccc1OC(=O)CN.Cl.Cl | 65.6

Tested on: Mus musculus
Experiment: Analgesic activity in albino mouse assessed protection against acetic acid-induced abdominal writhing at 10 mg/kg, ip pretreated for 1 hr followed by acetic acid challenge and measured starting 5 mins post acetic acid challenge for 10 mins relative to indomethacin
Format: functional
Details: time 75 min, 1.25 h

SMILES | Activity [%]
COc1cc(/C=C/C(=O)/C=C(O)/C=C/c2ccc(OC(=O)CN)c(OC)c2)ccc1OC(=O)CN.Cl.Cl | 106.5

Tested on: Mus musculus
Experiment: Analgesic activity in albino mouse assessed as forepaw licking/jumping latency time at 10 mg/kg, ip measured after 30 mins by hot plate test (reference value: 5.02 +/- 0.09 sec)
Format: functional
Details: 0.5 h

SMILES | Time [s]
COc1cc(/C=C/C(=O)/C=C(O)/C=C/c2ccc(OC(=O)CN)c(OC)c2)ccc1OC(=O)CN.Cl.Cl | 5.04

Tested on: Mus musculus
Experiment: Analgesic activity in albino mouse assessed as protection at 10 mg/kg, ip measured after 30 mins by hot plate test (reference value: 0 %)
Format: functional
Details: 0.5 h

SMILES | Activity [%]
COc1cc(/C=C/C(=O)/C=C(O)/C=C/c2ccc(OC(=O)CN)c(OC)c2)ccc1OC(=O)CN.Cl.Cl | 0.4

Tested on: Mus musculus
Experiment: Analgesic activity in albino mouse assessed as forepaw licking/jumping latency time at 10 mg/kg, ip measured after 60 mins by hot plate test (reference value: 3.42 +/- 0.03 sec)
Format: functional
Details: 1 h

SMILES | Time [s]
COc1cc(/C=C/C(=O)/C=C(O)/C=C/c2ccc(OC(=O)CN)c(OC)c2)ccc1OC(=O)CN.Cl.Cl | 4.28

Tested on: Mus musculus
Experiment: Analgesic activity in albino mouse assessed as protection at 10 mg/kg, ip measured after 60 mins by hot plate test (reference value: 0 %)
Format: functional
Details: 1 h

SMILES | Activity [%]
COc1cc(/C=C/C(=O)/C=C(O)/C=C/c2ccc(OC(=O)CN)c(OC)c2)ccc1OC(=O)CN.Cl.Cl | 25.1

Tested on: Mus musculus
Experiment: Analgesic activity in albino mouse assessed as forepaw licking/jumping latency time at 10 mg/kg, ip measured after 90 mins by hot plate test (reference value: 2.72 +/- 0.01 sec)
Format: functional
Details: 1.5 h

SMILES | Time [s]
COc1cc(/C=C/C(=O)/C=C(O)/C=C/c2ccc(OC(=O)CN)c(OC)c2)ccc1OC(=O)CN.Cl.Cl | 3.66

Tested on: Mus musculus
Experiment: Analgesic activity in albino mouse assessed as protection at 10 mg/kg, ip measured after 90 mins by hot plate test (reference value: 0 %)
Format: functional
Details: 1.5 h

SMILES | Activity [%]
COc1cc(/C=C/C(=O)/C=C(O)/C=C/c2ccc(OC(=O)CN)c(OC)c2)ccc1OC(=O)CN.Cl.Cl | 34.6

Tested on: Mus musculus
Experiment: Analgesic activity in albino mouse assessed as forepaw licking/jumping latency time at 10 mg/kg, ip measured after 120 mins by hot plate test (reference value: 2.62 +/- 0.06 sec)
Format: functional
Details: 2 h

SMILES | Time [s]
COc1cc(/C=C/C(=O)/C=C(O)/C=C/c2ccc(OC(=O)CN)c(OC)c2)ccc1OC(=O)CN.Cl.Cl | 3.52

Tested on: Mus musculus
Experiment: Analgesic activity in albino mouse assessed as protection at 10 mg/kg, ip measured after 120 mins by hot plate test (reference value: 0 %)
Format: functional
Details: 2 h

SMILES | Activity [%]
COc1cc(/C=C/C(=O)/C=C(O)/C=C/c2ccc(OC(=O)CN)c(OC)c2)ccc1OC(=O)CN.Cl.Cl | 34.4

Tested on: Mus musculus
Experiment: Analgesic activity in albino mouse assessed as protection at 10 mg/kg, ip measured after 120 mins by hot plate test relative to indomethacin
Format: functional
Details: 2 h

SMILES | Activity [%]
COc1cc(/C=C/C(=O)/C=C(O)/C=C/c2ccc(OC(=O)CN)c(OC)c2)ccc1OC(=O)CN.Cl.Cl | 81.9

Tested on: Staphylococcus aureus
Experiment: Antibacterial activity against Staphylococcus aureus ATCC 25923 incubated for 18 hrs by agar dilution method
Format: functional
Details: not given

MIC | SMILES
0.5 µg/mL and 0.9 µM | COc1cc(/C=C/C(=O)/C=C(O)/C=C/c2ccc(OC(=O)CN)c(OC)c2)ccc1OC(=O)CN.Cl.Cl

Tested on: Streptococcus pyogenes
Experiment: Antibacterial activity against Streptococcus pyogenes ATCC 19615 incubated for 18 hrs by agar dilution method
Format: functional
Details: not given

MIC | SMILES
0.25 µg/mL and 0.45 µM | COc1cc(/C=C/C(=O)/C=C(O)/C=C/c2ccc(OC(=O)CN)c(OC)c2)ccc1OC(=O)CN.Cl.Cl

Tested on: Salmonella typhimurium
Experiment: Antibacterial activity against Salmonella typhimurium ATCC 19430 incubated for 18 hrs by agar dilution assay
Format: functional, Salmonella enterica subsp. enterica serovar Typhimurium
Details: Salmonella enterica

MIC | SMILES
0.25 µg/mL and 0.45 µM | COc1cc(/C=C/C(=O)/C=C(O)/C=C/c2ccc(OC(=O)CN)c(OC)c2)ccc1OC(=O)CN.Cl.Cl

Tested on: Pseudomonas aeruginosa
Experiment: Antibacterial activity against Pseudomonas aeruginosa ATCC 27853 incubated for 18 hrs by agar dilution assay
Format: functional
Details: not given

MIC | SMILES
1 µg/mL and 1.8 µM | COc1cc(/C=C/C(=O)/C=C(O)/C=C/c2ccc(OC(=O)CN)c(OC)c2)ccc1OC(=O)CN.Cl.Cl

Tested on: Candida albicans
Experiment: Antifungal activity against Candida albicans incubated for 18 to 24 hrs by CLSI method
Format: functional
Details: time 18-24 hrs

MIC | SMILES
1 µg/mL and 1.8 µM | COc1cc(/C=C/C(=O)/C=C(O)/C=C/c2ccc(OC(=O)CN)c(OC)c2)ccc1OC(=O)CN.Cl.Cl

Tested on: A549
Experiment: Antiproliferative activity against human A549 cells assessed as inhibition of cell growth after 72 hrs by MTT assay
Format: functional, cell-based
Details: A549, 72 h

pIC50 | SMILES
4.72 | COc1cc(/C=C/C(=O)/C=C(O)/C=C/c2ccc(OC(=O)CN)c(OC)c2)ccc1OC(=O)CN.Cl.Cl

Tested on: MCF7
Experiment: Antiproliferative activity against human MCF7 cells assessed as inhibition of cell growth after 72 hrs by MTT assay
Format: functional, cell-based
Details: MCF7, 72 h

pIC50 | SMILES
5.04 | COc1cc(/C=C/C(=O)/C=C(O)/C=C/c2ccc(OC(=O)CN)c(OC)c2)ccc1OC(=O)CN.Cl.Cl

Tested on: PC-3
Experiment: Antiproliferative activity against human PC3 cells assessed as inhibition of cell growth after 72 hrs by MTT assay
Format: functional, cell-based
Details: PC-3, 72 h

pIC50 | SMILES
4.41 | COc1cc(/C=C/C(=O)/C=C(O)/C=C/c2ccc(OC(=O)CN)c(OC)c2)ccc1OC(=O)CN.Cl.Cl

Tested on: not listed separately
Experiment: Toxicity in albino mouse assessed as induction of toxic symptoms at 50 to 100 mg/kg, ip measured after 24 hrs
Format: organism-based
Details: in vivo, dose 50-100 mg/kg

SMILES | Activity
COc1cc(/C=C/C(=O)/C=C(O)/C=C/c2ccc(OC(=O)CN)c(OC)c2)ccc1OC(=O)CN.Cl.Cl | Non-Toxic
